From patent US20250263408A1 (Uniquest Pty Ltd, priority 2022, published 2025)

What was measured:
Ba/F3-Syk cells = molecular target: T1, Ba/F3-Syk cells (Homo sapiens, UniProt P43405); experiment: Ba/F3 Proliferation Assay, Ba/F3-Syk cells (Resazurin); type: cell-based; details: 48-hour incubation
T1 construct: fused on or other part: Possible but unprinted fusion partner: TEL (ETV6), the usual partner for Ba/F3 lines transformed by Syk; Nothing on a partner is printed

Syk = molecular target: T2, Syk (Homo sapiens, UniProt P43405); experiment: Syk Biochemical Assay (ADP-Glo luminescence); details: ATP 40 μM final, 60 minutes, read-out: SYK Biochem IC50
T2 construct: purchased Promega
Method: Compounds were serially diluted in 100% DMSO, prior to an intermediate dilution in water. In a low volume white 384-well Proxiplate (Perkin Elmer), 1 μL of compound (0.4% final DMSO) was added to 3 μL of 10 ng/well Syk (Promega) and 0.2 mg/mL Poly-E4Y1 substrate (Promega) in assay buffer (final 40 mM Tris-HCl pH 7.4, 20 mM MgCl2, 0.1 mg/mL BSA) for 5 minutes. The reaction was initiated by addition of 1 μL of ATP (40 μM final) and allowed to proceed for 60 minutes at room temperature. The reaction was terminated by addition of 5 μL of ADP-Glo Reagent Mix (Promega) containing 1 mM MgCl2 for 45 minutes at room temperature. 10 μL of Kinase Detection Reagent (Promega) was added and incubated for 10 minutes at room temperature, before luminescence was measured using an Ensight Multimode Plate Reader (Perkin Elmer).

[1] = system: Ba/F3-WT (wild type) cells; experiment: Ba/F3 Proliferation Assay, Ba/F3-WT (wild type) cells with mIL-3 (Resazurin); type: cell-based; details: Ba/F3-WT cells +mIL-3, 48-hour incubation

SMILES	EC50 (Ba/F3-Syk cells)	IC50 (Syk)	EC50 ([1]; Mus musculus, BaF3, 48 h)	EC50 [1]
C[C@@H]1CO[C@H](COc2nc(-c3cnn(C)c3)cc3ncccc23)CN1 (relative stereo) [Compound 2.27, 7-(1-methyl-1H-pyrazol-4-yl)-5-{[(rel-2S,5R)-5-methylmorpholin-2-yl]methoxy}-1,6-naphthyridine]	305 nM	247 nM	1500 nM	
Cn1cc(-c2cc3ncccc3c(OCC3CNCC(C)(C)O3)n2)cn1 (centres unmarked) [Compound 2.13, 5-[(6,6-dimethylmorpholin-yl)methoxy]-7-(1-methyl-1H-pyrazol-4-yl)-1,6-naphthyridine]	79 nM	51.6 nM	2400 nM	
CC(C)(C)n1cc(-c2cc3ncccc3c(OC[C@@H]3CNC[C@H](C(F)F)O3)n2)cn1 [Compound 2.105, 7-(1-tert-butyl-1H-pyrazol-4-yl)-5-{[(2S,6R)-6-(difluoromethyl)morpholin-2-yl]methoxy}-1,6-naphthyridine]	31.1 nM	6.21 nM	1550 nM	
FC(F)(F)c1[nH]ncc1-c1cc2ncccc2c(OC[C@@H]2CNCCO2)n1 [Compound 2.17, 5-{[(2S)-morpholin-2-yl]methoxy}-7-[5-(trifluoromethyl)-1H-pyrazol-4-yl]-1,6-naphthyridine]	2460 nM	789 nM	> 10000 nM	
COCCn1ccc(-c2cc3ncccc3c(OC[C@@H]3CNCC(C)(C)O3)n2)c1 [Compound 6.16, 5-{[(2S)-6,6-dimethylmorpholin-2-yl]methoxy}-7-[1-(2-methoxyethyl)-1H-pyrrol-3-yl]-1,6-naphthyridine]	41.9 nM	28.4 nM	3120 nM	
c1cnc2cc(-c3cnn(C4COC4)c3)nc(OC[C@@H]3CNCCO3)c2c1 [Compound 2.11, 5-{[(2S)-morpholin-2-yl]methoxy}-7-[1-(oxetan-3-yl)-1H-pyrazol-4-yl]-1,6-naphthyridine]	131 nM	18.2 nM		
CC(C)n1cc(-c2cc3ncccc3c(OC[C@H]3OCCN[C@H]3C)n2)cn1 [Compound 2.96, 5-{[(2S,3S)-3-methylmorpholin-2-yl]methoxy}-7-[1-(propan-2-yl)-1H-pyrazol-4-yl]-1,6-naphthyridine]	20.1 nM		724 nM	
CC1(C)CNC[C@@H](COc2nc(-c3cnn(C(C)(C)C)c3)cc3nccc(C(F)(F)F)c23)O1 [Compound 14.13, 7-(1-tert-butyl-1H-pyrazol-4-yl)-5-{[(2S)-6,6-dimethylmorpholin-2-yl]methoxy}-4-(trifluoromethyl)-1,6-naphthyridine]	20 nM		865 nM	
CC(C)(C)n1cc(-c2cc(OC[C@@H]3CNCC4(CCC4)O3)c3cccnc3c2)cn1 [Compound 11.9, 7-(1-tert-butyl-1H-pyrazol-4-yl)-5-{[(6S)-5-oxa-8-azaspiro[3.5]nonan-6-yl]methoxy}quinoline]	10 nM		1580 nM	
CC(C)(C)n1cc(-c2cc3ncccc3c(OCC3CNCCCO3)n2)cn1 (centres unmarked) [Compound 2.47, 7-(1-tert-butyl-1H-pyrazol-4-yl)-5-[(1,4-oxazepan-2-yl)methoxy]-1,6-naphthyridine]	48 nM		3270 nM	
Cn1ccc(-c2cc3ncccc3c(OC[C@@H]3CN[C@@H]4C[C@@H]4O3)n2)c1 (relative stereo) [Compound 2.71, 7-(1-methyl-1H-pyrrol-3-yl)-5-{[(rel-1S,3S,6R)-2-oxa-5-azabicyclo[4.1.0]heptan-3-yl]methoxy}-1,6-naphthyridine]	1330 nM		> 10000 nM	
Cn1cc(-c2cc3ncccc3c(OC[C@@H]3CNCCCO3)n2)cn1 [Compound 2.50, 7-(1-methyl-1H-pyrazol-4-yl)-5-{[(2S)-1,4-oxazepan-2-yl]methoxy}-1,6-naphthyridine]	151 nM		6180 nM	
CC1(C)CNC[C@@H](COc2cc(-c3ccn(C4CC4(F)F)c3)cc3ncccc23)O1 (stereo partly drawn) [Compound 7.8, 7-[1-(2,2-difluorocyclopropyl)-1H-pyrrol-3-yl]-5-{[(2S)-6,6-dimethylmorpholin-2-yl]methoxy}quinoline]	19.3 nM		3270 nM	
c1cnc2cc(-c3cncs3)nc(OC[C@@H]3CNCCO3)c2c1 [Compound 2.29, 5-{[(2S)-morpholin-2-yl]methoxy}-7-(1,3-thiazol-5-yl)-1,6-naphthyridine]	1020 nM		> 10000 nM	
Cc1cc(-c2cc3ncccc3c(OC[C@@H]3CNCCO3)n2)sc1Cl [Compound 2.35, 7-(5-chloro-4-methylthiophen-2-yl)-5-{[(2S)-morpholin-2-yl]methoxy}-1,6-naphthyridine]	667 nM		619 nM	
C[C@@H](Oc1nc(-c2cnn(C)c2)cc2ncccc12)[C@@H]1CNCC(C)(C)O1 [Compound 2.83, 5-[(1R)-1-[(2S)-6,6-dimethylmorpholin-2-yl]ethoxy]-7-(1-methyl-1H-pyrazol-4-yl)-1,6-naphthyridine]	34.2 nM		1650 nM	

SMILES	EC50 (Ba/F3-Syk cells)	IC50 (Syk)	EC50 ([1]; Mus musculus, BaF3, 48 h)	EC50 [1]
CC(C)(C)n1cc(-c2cc3ncccc3c(O[C@@H]3CC[C@@H]4NCCO[C@@H]43)n2)cn1 (relative stereo) [Compound 2.90, 5-[rel-(4aS,7R,7aS)-octahydrocyclopenta[b][1,4]oxazin-7-yloxy]-7-(1-tert-butyl-1H-pyrazol-4-yl)-1,6-naphthyridine]	54.6 nM		> 1000 nM	
FC(F)Cn1ccc(-c2cc(OC[C@@H]3CNCCO3)c3cccnc3c2)c1 [Compound 7.2, 7-[1-(2,2-difluoroethyl)-1H-pyrrol-3-yl]-5-{[(2S)-morpholin-2-yl]methoxy}quinoline]		10.1 nM	2110 nM	2480 nM
CC(C)(C)n1cc(-c2cc3ncccc3c(OC[C@H]3CN[C@@H]4CCC[C@@H]4O3)n2)cn1 (stereo in doubt) [Compound 2.95, 5-{[(2R,4aR,7aS)-octahydrocyclopenta[b][1,4]oxazin-2-yl]methoxy}-7-(1-tert-butyl-1H-pyrazol-4-yl)-1,6-naphthyridine]	22.1 nM		1850 nM	
Cn1ccc(-c2cc(OC[C@@H]3CNCCCO3)c3cccnc3c2)c1 [Compound 3.22, 7-(1-methyl-1H-pyrrol-3-yl)-5-{[(2S)-1,4-oxazepan-2-yl]methoxy}quinoline]	99 nM		9680 nM	
CC(C)n1ccc(-c2cc(OC[C@@H]3CNCCO3)c3cccnc3c2)c1 [Compound 7.1, 5-{[(2S)-morpholin-2-yl]methoxy}-7-[1-(propan-2-yl)-1H-pyrrol-3-yl]quinoline]	47.9 nM		2780 nM	
CC(C)n1cc(-c2cc3ncccc3c(OC[C@]3(C)CNCCO3)n2)cn1 [Compound 10.6, 5-{[(2S)-2-methylmorpholin-2-yl]methoxy}-7-[1-(propan-2-yl)-1H-pyrazol-4-yl]-1,6-naphthyridine]	106 nM		754 nM	
C[C@@H]1O[C@H](COc2nc(-c3cnn(C(C)(C)C)c3)cc3ncccc23)CN[C@@H]1C (relative stereo) [Compound 2.81, 7-(1-tert-butyl-1H-pyrazol-4-yl)-5-{[rel-(2S,5R,6S)-5,6-dimethylmorpholin-2-yl]methoxy}-1,6-naphthyridine]	73.2 nM		2070 nM	
CCn1ccc(-c2cc(OC[C@@H]3CNCCCO3)c3nccnc3c2)c1 [Compound 8.9, 7-(1-ethyl-1H-pyrrol-3-yl)-5-{[(2S)-1,4-oxazepan-2-yl]methoxy}quinoxaline]	20.5 nM		1620 nM	
C[C@H]1CNC[C@@H](COc2nc(-c3ccn(C)c3)cc3ncccc23)O1 [Compound 2.75, 7-(1-methyl-1H-pyrrol-3-yl)-5-{[(2,6S)-6-methylmorpholin-2-yl]methoxy}-1,6-naphthyridine]	67.8 nM		3920 nM	
COCCn1ccc(-c2cc(OC[C@@H]3CNCC(C)(C)O3)c3c(C)ccnc3c2)c1 [Compound 14.11, 5-{[(2S)-6,6-dimethylmorpholin-2-yl]methoxy}-7-[1-(2-methoxyethyl)-1H-pyrrol-3-yl]-4-methylquinoline]	6.1 nM		803 nM	
Cn1ccc(-c2cc(OC[C@@H]3CNCCO3)c3cncnc3c2)c1 [Compound 4.3, 7-(1-methyl-1H-pyrrol-3-yl)-5-{[(2S)-morpholin-2-yl]methoxy} quinazoline]	586 nM		5010 nM	
CC1(C)CNC[C@@H](COc2nc(-c3cnn(C4(C)CCOC4)c3)cc3ncccc23)O1 (some centres unmarked) [Compound 2.89]	21.7 nM		2730 nM	
c1cnc2cc(-c3cnn(C4CCC4)c3)cc(OC[C@@H]3CNCCO3)c2c1 [Compound 3.5, 7-(1-cyclobutyl-1H-pyrazol-4-yl)-5-{[(2S)-morpholin-2-yl]methoxy}quinoline]	61.8 nM		902 nM	
FC(F)Cn1cc(-c2cc3ncccc3c(OC[C@@H]3CNCCCO3)n2)cn1 [Compound 6.27, 7-[1-(2,2-difluoroethyl)-1H-pyrazol-4-yl]-5-{[(2S)-1,4-oxazepan-2-yl]methoxy}-1,6-naphthyridine]	52.2 nM		5590 nM	
CC(C)(C)n1cc(-c2cc(OC[C@@H]3CNCC4(CC4)O3)c3nccnc3c2)cn1 [Compound 12.3, 7-(1-tert-butyl-1H-pyrazol-4-yl)-5-{[(5S)-4-oxa-7-azaspiro[2.5]octan-5-yl]methoxy}quinoxaline]	27.3 nM		1300 nM	
